Patent publication US8497279B2, “Treatment for discoid lupus” (Rigel Pharmaceuticals, Inc., priority 2011, dated 2013)
Counter-ions that a name gives are not always drawn.

Columns and labels:
primary human T-cells = assay: Primary human T-cell proliferation assay stimulated with IL-2 (CellTiter-Glo); type: cell-based; settings: primary human T-cells, IL-2, 72 hours, ATP readout; read-out: Example 4 IC50
From the text: In this assay, primary human T-cells derived from peripheral blood and pre-activated through stimulation of the T-cell receptor and CD28, proliferate in culture in response to the cytokine Interleukin-2 (IL-2). This proliferative response is dependent on the activation of JAK1 and JAK3 tyrosine kinases, which phosphorylate and activate the transcription factor Stat-5. […] A reduction in cell proliferation compared to control conditions is indicative of inhibition of the JAK kinase pathway. An exemplary assay of this type is described in greater detail below.
Primary human T-cells derived from peripheral blood and pre-activated through stimulation of the T-cell receptor and CD28, proliferate in vitro in response to the cytokine Interleukin-2 (IL-2). This proliferative response is dependent on the activation of JAK-1 and JAK-3 tyrosine kinases, which phosphorylate and activate the transcription factor Stat-5.
Human primary T cells were prepared as follows. […] The lymphocytes at the serum: ficoll interface were recovered and washed twice with 5 volumes of PBS. […] The primary T-cells were stimulated for 3-4 days, then transferred to a fresh flask and maintained in RPMI with 10% FBS and 40 U/mL IL-2.
Primary T-cells were washed twice with PBS to remove the IL-2 and resuspended in Yssel's medium at 2×10^6 cells/mL. 50 μL of cell suspension containing 80 U/mL IL-2 was added to each well of a flat bottom 96 well black plate. For the unstimulated control, IL-2 was omitted from the last column on the plate. […] 50 μL of 2× compound was added per well in duplicate and the cells were allowed to proliferate for 72 hours at 37° C.
Proliferation was measured using CellTiter-Glo® Luminescent Cell Viability Assay (Promega), which determines the number of viable cells in culture based on quantitation of the ATP present, as an indicator of metabolically active cells. The substrate was thawed and allowed to come to room temperature. After mixing the Cell Titer-Glo reagent and diluent together, 100 μL was added to each well. […]

JAK1 and JAK3 kinases = assay: Ramos B-cell line stimulated with IL-4, CD23 upregulation (FACS); type: cell-based, human; settings: Ramos B cells, IL-4 50 units/mL, 20-24 hours, CD23 staining; read-out: Example 3 IC50
Protocol: One means of assaying for JAK inhibition is detection of the effect of compounds I and II on the upregulation of downstream gene products. In the Ramos/IL4 assay, B-cells are stimulated with the cytokine Interleukin-4 (IL-4) leading to the activation of the JAK/Stat pathway through phosphorylation of the JAK family kinases, JAK1 and JAK3, which in turn phosphorylate and activate the transcription factor Stat-6. […] Twenty to 24 hours post stimulation, cells are stained for upregulation of CD23 and analyzed using flow cytometry (FACS). […] An exemplary assay of this type is described in greater detail below. B-cells stimulated with cytokine Interleukin-4 (IL-4) activate the JAK/Stat pathway through phosphorylation of the JAK family kinases, JAK-1 and JAK-3, which in turn phosphorylate and activate the transcription factor Stat-6. […] To study the effect of inhibitors on the JAK family kinases, human Ramos B cells are stimulated with human IL-4. The Ramos B-cell line was acquired from [NT] No. CRL-1596). The cells were cultured in RPMI 1640 (Cellgro, MediaTech, Inc., Herndon, Va., Cat No. 10-040-CM) with 10% fetal bovine serum (FBS), heat inactivated (JRH Biosciences, Inc, Lenexa, Kans., Cat No. 12106-500M) according to ATCC propagation protocol. Cells were maintained at a density of 3.5×10^5. The day before the experiment, Ramos B-cells were diluted to 3.5×10^5 cells/mL to ensure that they were in a logarithmic growth phase. Cells were spun down and suspended in RPMI with 5% serum. 5×10^4 cells were used per point in a 96-well tissue culture plate. Cells were pre-incubated with compound or DMSO (Sigma-Aldrich, St. Louis, Mo., Cat No. D2650) vehicle control for 1 hour in a 37° C. incubator. Cells were then stimulated with IL-4 (Peprotech Inc., Rocky Hill, N.J., Cat No. 200-04) for a final concentration of 50 units/mL for 20-24 hours. Cells were then spun down and stained with anti-CD23-PE(BD Pharmingen, San Diego, Calif., Cat No. 555711) and analyzed by FACS. Detection was performed using a BD LSR I System Flow Cytometer, purchased from Becton Dickinson Biosciences of San Jose, Calif.

JAK/Stat pathway = assay: U937 IFNγ ICAM1 FACS assay; type: cell-based, human; settings: U937 cells, IFNγ 10 ng/mL, 18-24 hours, ICAM-1 expression; read-out: Example 6 IC50
Protocol: U937 human monocytic cells up-regulate ICAM-1 (CD54) surface expression in response to a variety of different stimuli. Therefore, using ICAM-1 expression as readout, compound effects on different signaling pathways can be assessed in the same cell type. IFNγ up-regulates ICAM-1 through activation of the JAK/Stat pathway. In this example, the up-regulation of ICAM-1 by IFNγ was assessed.
U937 cells were grown in 10% RPMI. The cells were then plated at a concentration of 100,000 cells per 160 μL in 96 well flat bottom plates. […] Then 4 μL of test compound was transferred to 76 μL of 10% RPMI resulting in a 10× solution (100 μM test compound, 5% DMSO). For control wells, 4 μL of DMSO was diluted into 76 μL 10% RPMI.
The assay was performed in duplicate with 8 points (8 3-fold dilution concentrations from […]) and with 4 wells of DMSO only (control wells) under stimulated conditions and 4 wells of DMSO only under unstimulated conditions.
The diluted compound plate was mixed 2× using a multimek (Beckman Coulter of Brea, Calif.) and then 20 μL of the diluted compounds was transferred to the 96 well plate containing 160 μL of cells, which were then mixed again twice at low speeds. The cells and compounds were then pre-incubated for 30 minutes at 37° C. with 5% CO2.
The 10× stimulation mix was made by preparing a 100 ng/mL solution of human IFNγ in 10% RPMI. […] The cells were kept under conditions for stimulation for 18-24 hours at 37° C. with 5% CO2.
The cells were transferred to a 96 well round bottom plate for staining and then kept on ice for the duration of the staining procedure. Cells were spun down at 1000 rpm for 5 minutes at 4° C., following which the supernatant was removed. Following removal of the supernatant, 1 μL APC conjugated mouse anti-human ICAM-1 antibody was added per 100 μL FACS buffer. The cells were then incubated on ice in the dark for 30 minutes. Following incubation, 150 μL of FACS buffer was added and the cells were centrifuged at 1000 rpm for 5 minutes at 4° C., following which the supernatant was removed. […]
Both % live cells and ICAM-1 expression was analyzed. […]

C#CCOc1ccc(Nc2nc(Nc3ccc(C)c(S(=O)(=O)NC(=O)CC)c3)ncc2F)cc1 [VI, 5-Fluoro-N2-[4-methyl-3-(N-propionylaminosulfonyl)phenyl]-N4-[4-(2-propynyloxy)phenyl]-2,4-pyrimidinediamine Arginine Salt]
IC50 (primary human T-cells): 262 nM
IC50 (JAK1 and JAK3 kinases): 104 nM
IC50 (JAK/Stat pathway): 424 nM
